The results in this text go back to patent US20240277713A1 (Kadmon Corporation, LLC, priority 2022, published 2024).

For orientation: Cmax means the peak of the concentration-time curve.

Like-named read-outs stand apart in the source and are kept apart here.

The nature of this data set: Toxicokinetics in pregnant New Zealand White rabbits (Example 2). The following applies: female, New Zealand White, rabbit, in vivo, po; for AUC(0-t): read-out: maternal AUC0-24; for Cmax: read-out: maternal Cmax. Type of data set: in vivo, rabbit. The procedure: The study was conducted in two phases: Phase A was a dose range finding tolerance study with non-pregnant rabbits, and Phase B was the pilot developmental toxicity study.
All fetuses were given the appropriate external examination.

For the compound `CC(C)NC(=O)COc1cccc(-c2nc(Nc3ccc4[nH]ncc4c3)c3ccccc3n2)c1` [belumosudil, 2-{3-[4-(1H-indazol-5-ylamino)-2-quinazolinyl]phenoxy}-N-(propan-2-yl) acetamide], where the note is “50 mg/kg/day”, the AUC(0-t) was 2480 ng·h/mL and the Cmax was determined as 621 ng/mL. Under “250 mg/kg/day”, the AUC(0-t) amounted to 15600 ng·h/mL and the Cmax came to 2100 ng/mL.
